# Results as given in US9738631B2, “Compositions and methods for the treatment of neurological disorders” (CELLIXBIO PRIVATE LIMITED, priority 2012, dated 2017).
# How the values were obtained:
# [1] = Pharmacokinetic profiles over 24 hours in normal and diabetic rats (toxicokinetic study); type: in vivo, Sprague Dawely rats; details: for reduction of AUC0-24 by diabetes / reduction of AUC0-inf by diabetes / reduction of Cmax by diabetes: streptozotocin-diabetic rats
# Protocol: Toxicokinetic Effects of Carbamazepine and Formula (1-2) in Diabetic Rats […] Animals were divided into […], normal and diabetic sets; each set was divided into control and three-treated groups where rats received orally carbamazepine and formula (1-2) in dose levels of 100 and 200 mg/kg once daily for 28 days. The pharmacokinetic profiles were carried out over a period of 24 hours. The liver functions were evaluated by the determination of albumin, ALT and AST plasma levels and kidney functions were determined by creatinine and urea. Histopathology of rat's livers and kidneys were also investigated. Carbamazepine plasma levels were determined by a validated HPLC method.
# [2] = test system: adult male Sprague Dawely rats; test: Liver and kidney functions (albumin, ALT, AST, creatinine, urea) after 28 days oral dosing; type: in vivo
# Protocol: Toxicokinetic Effects of Carbamazepine and Formula (1-2) in Diabetic Rats
# Diabetes was induced in adult male Sprague Dawely rats by streptozotocin (60 mg/kg, ip). Animals were divided into […], normal and diabetic sets; each set was divided into control and three-treated groups where rats received orally carbamazepine and formula (1-2) in dose levels of 100 and 200 mg/kg once daily for 28 days. The pharmacokinetic profiles were carried out over a period of 24 hours. The liver functions were evaluated by the determination of albumin, ALT and AST plasma levels and kidney functions were determined by creatinine and urea. Histopathology of rat's livers and kidneys were also investigated. Carbamazepine plasma levels were determined by a validated HPLC method.
# [3] = treated groups, 100 and 200 mg/kg orally once daily for 28 days, P<0.05
smiles,measurement,setting,value
"NC(=O)N1c2ccccc2C=Cc2ccccc21 [carbamazepine, Carbamazepine]",reduction of AUC0-24 by diabetes,[1]; carbamazepine 100 mg/kg orally,13.6%
same,reduction of AUC0-inf by diabetes,[1]; carbamazepine 100 mg/kg orally,22.8%
same,reduction of Cmax by diabetes,[1]; carbamazepine 100 mg/kg orally,6.8%
same,reduction of AUC0-24 by diabetes,[1]; carbamazepine 200 mg/kg orally,12.2%
same,reduction of AUC0-inf by diabetes,[1]; carbamazepine 200 mg/kg orally,32.8%
same,reduction of Cmax by diabetes,[1]; carbamazepine 200 mg/kg orally,20.3%
same,effect of diabetes on the rate and extent of absorption,"[1]; diabetic rats, P<0.05",significantly altered
same,"elevation of liver enzymes, urea and creatinine in diabetic rats compared with normal rats",[2]; diabetic rats,more pronounced in diabetic rats
same,Liver enzymes levels,[2]; [3],significantly elevated
same,creatinine levels,[2]; [3],significantly elevated
same,urea levels,[2]; [3],significantly elevated
